{"source": "patent EP2522335A1", "about": "“Use of resveratrol and sodium-ascorbyl-phophate” (DSM IP Assets B.V., priority 2011, dated 2012)", "system": "TYR", "assay": "Assessment of gene modulation in normal human epidermal melanocytes (RT-qPCR, PCR array mQPA H-Melanocyte-64)", "assay_type": "cell-based", "conditions": "NHEM cells, 72 hours treatment", "description": "Normal human epidermal melanocytes were cultivated for 24 hours. Culture medium was then removed and replaced by fresh medium containing the active ingredient to be evaluated or exempt of it (control). Cells were cultivated for additional 72 hours. All experimental conditions were performed in triplicate. At the end of the cultivation, the cells were harvested and washed with phosphate buffered saline (PBS) solution and immediately frozen at -80 °C. The expression of selected markers was analyzed using RT-qPCR method on mRNA extracted from cells layer for each treatment condition. The differential expression analysis was performed by PCR arrays of the screening format \"mQPA H-Melanocyte-64\", which focuses on 64 genes selected for their importance in pigmentation and melanocyte biology. Total RNA was extracted from each sample using TRI-Reagent®. The amount and quality of the RNA was evaluated using a lab-on-a-chip Bioanalyzer (Agilent technologies). Potential contaminants traces of DNA were removed […] The incorporation of fluorescence in amplified DNA was measured continuously during the PCR cycles. […] The value selected for RE calculations is the \"output point\" (Ct) of the fluorescence curve. For a given marker, the highest is the cycle number; the lowest, is the mRNA quantity. The RE value is expressed in arbitrary units (AU) according to the equation: (((1)/(2)))^NC x 10^6 [formula] Where NC is the number of cycles.", "key": {"[1]": {"conditions": "resveratrol 5 µg/ml, sodium-ascorbyl-phosphate 1 mg/ml, combination 5 µg/ml + 1 mg/ml, read-out: TYR (expression ratio compared to control of the gene TYR)"}, "[2]": {"conditions": "resveratrol 5 micrograms/ml, sodium-ascorbyl-phosphate 1mg/ml, alone or combined, positive = up-regulation, negative = down-regulation, read-out: up-regulation / down-regulation of TYR when compared to untreated cells"}}, "note": "Where two headings read alike, the source gives them in different places.", "data": [{"smiles": "Oc1ccc(C=Cc2cc(O)cc(O)c2)cc1", "note": "[Resveratrol, 3,4',5 trihydroxystilbene]", "values": [{"measurement": "activation at 5 µg/mL", "setting": "[1]", "result": 25, "unit": "%"}, {"measurement": "activation at 5 µg/mL", "setting": "[2]", "result": 25, "unit": "%"}]}, {"smiles": "O=C1O[C@H]([C@@H](O)CO)C(O)=C1OP(=O)(O)O", "note": "[Sodium-ascorbyl-phosphate]", "values": [{"measurement": "activation at 1000 µg/mL", "setting": "[1]", "result": 30, "unit": "%"}, {"measurement": "activation at 1000 µg/mL", "setting": "[2]", "result": 30, "unit": "%"}]}]}
